Measured values reported in publication PMC10530836, “Synthesis, Molecular Docking, and Biological Evaluation of Novel Anthranilic Acid Hybrid and Its Diamides as Antispasmodics” (International Journal of Molecular Sciences, 2023).
Like-named read-outs stand apart in the source and are kept apart here. Blank lines part the entries; values can stand above or below the compound they belong to.

Key:
[1] = system: Enterococcus faecalis ATCC 29212; experiment: Antimicrobial activity, agar well diffusion; format: cell-based; details: Dose 0.6 mg/disk, dwell = 6 mm
[2] = system: Aspergillus flavus; experiment: Antimicrobial activity, agar well diffusion; format: cell-based; details: Dose 0.6 mg/disk, dwell = 6 mm
Description: (§1) Twenty tested microorganisms including six Gram-positive bacteria (Bacillus subtilis ATCC 6633, Bacillus amyloliquefaciens 4BCL-YT, Staphylococcus aureus ATCC 25923, Listeria monocytogenes NBIMCC 8632, Enterococcus faecalis ATCC 19433), six Gram-negative bacteria (Salmonella enteritidis ATCC 13076, Klebsiella sp.—clinical isolate, Escherichia coli ATCC 25922, Proteus vulgaris ATCC 6380, Pseudomonas aeruginosa ATCC 9027), two yeasts (Candida albicans NBIMCC 74, Saccharomyces cerevisiae ATCC 9763), and six fungi (Aspergillus niger ATCC 1015, Aspergillus flavus, Penicillium sp., Rhizopus sp., Mucor sp.—plant isolates, Fusarium moniliforme ATCC 38932) from the collection of the Department of Microbiology at the University of Food Technologies—Plovdiv, Bulgaria, were selected for the antimicrobial activity test. The antimicrobial activity of the samples was determined by the agar well diffusion method. The tested bacteria B. subtilis and B. amyloliquefaciens were cultured on LBG agar at 30 °C. The test bacteria S. aureus, L. monocytogenes, E. faecalis, S. enteritidis, Klebsiella sp., E. coli, P. vulgaris, and P. aeruginosa were cultured on LBG agar at 37 °C for 24 h. The yeast C. albicans was cultured on MEA at 37 °C, while S. cerevisiae was cultured on MEA at 30 °C for 24 h. The fungi A. niger, A. flavus, Penicillium sp., Rhizopus sp., Mucor sp., and F. moniliforme were grown on MEA at 30 °C for 7 days or until sporulation. The inocula of the tested bacteria/yeasts was prepared by homogenization of a small amount of biomass in 5 mL of sterile 0.5% NaCl. The inocula of tested fungi were prepared by the addition of 5 mL of sterile 0.5% NaCl into the tubes. After stirring by vortex V-1 plus (Biosan), they were filtered and replaced in other tubes before use. The number of viable cells and fungal spores was determined using a bacterial counting chamber Thoma (Poly-Optik, GmbH, Bad Blankenburg, Germany). Their final concentrations were adjusted to 10^8 cfu/mL for bacterial/yeast cells and 10^5 cfu/mL for fungal spores and then inoculated in preliminarily melted and tempered at 45–48 °C LBG/MEA agar media. Next, the inoculated media were transferred in a quantity of 18 mL in sterile Petri plates (d = 90 mm) (Gosselin™, Hazebrouck, France) and allowed to harden. Then, six wells (d = 6 mm) per plate were cut, and triplicates of 60 μL of each extract were pipetted into the agar wells. The Petri plates were incubated in identical conditions. The antimicrobial activity was determined by measuring the diameter of the inhibition zones around the wells on the 24th and 48th h of incubation. Tested microorganisms with inhibition zones of 18 mm or more were considered sensitive; moderately sensitive were those in which the zones were from 12 to 18 mm; resistant were those in which the inhibition zones were up to 12 mm or completely missing.

[3] = system: Aspergillus niger ATCC 1015; experiment: Antimicrobial activity, agar well diffusion; format: cell-based; details: Dose 0.6 mg/disk, dwell = 6 mm
Description: as §1

[4] = system: Bacillus amyloliquefaciens 4BCL-YT; experiment: Antimicrobial activity, agar well diffusion; format: cell-based; details: Dose 0.6 mg/disk, dwell = 6 mm
Description: as §1

[5] = system: Bacillus subtilis ATCC 6633; experiment: Antimicrobial activity, agar well diffusion; format: cell-based; details: Dose 0.6 mg/disk, dwell = 6 mm
Description: as §1

[6] = system: Escherichia coli ATCC 25922; experiment: Antimicrobial activity, agar well diffusion; format: cell-based; details: Dose 0.6 mg/disk, dwell = 6 mm
Description: as §1

[7] = system: Fusarium moniliforme ATCC 38932; experiment: Antimicrobial activity, agar well diffusion; format: cell-based; details: Dose 0.6 mg/disk, dwell = 6 mm
Description: as §1

[8] = system: Listeria monocytogenes NBIMCC 8632; experiment: Antimicrobial activity, agar well diffusion; format: cell-based; details: Dose 0.6 mg/disk, dwell = 6 mm
Description: as §1

[9] = system: Micrococcus luteus 2YC-YT; experiment: Antimicrobial activity, agar well diffusion; format: cell-based; details: Dose 0.6 mg/disk, dwell = 6 mm
Description: as §1

[10] = system: Penicillium chrysogenum; experiment: Antimicrobial activity, agar well diffusion; format: cell-based; details: Dose 0.6 mg/disk, dwell = 6 mm
Description: as §1

[11] = system: Proteus vulgaris ATCC 6380; experiment: Antimicrobial activity, agar well diffusion; format: cell-based; details: Dose 0.6 mg/disk, dwell = 6 mm
Description: as §1

[12] = system: Pseudomonas aeruginosa ATCC 9027; experiment: Antimicrobial activity, agar well diffusion; format: cell-based; details: Dose 0.6 mg/disk, dwell = 6 mm
Description: as §1

[13] = system: Rhizopus sp.; experiment: Antimicrobial activity, agar well diffusion; format: cell-based; details: Dose 0.6 mg/disk, dwell = 6 mm
Description: as §1

[14] = system: Saccharomyces cerevisiae ATCC 9763; experiment: Antimicrobial activity, agar well diffusion; format: cell-based; details: Dose 0.6 mg/disk, dwell = 6 mm
Description: as §1

[15] = system: Salmonella enteritidis ATCC 13076; experiment: Antimicrobial activity, agar well diffusion; format: cell-based; details: Dose 0.6 mg/disk, dwell = 6 mm
Description: as §1

[16] = system: Salmonella typhimurium NBIMCC 1672; experiment: Antimicrobial activity, agar well diffusion; format: cell-based; details: Dose 0.6 mg/disk, dwell = 6 mm
Description: as §1

[17] = system: Klebsiella pneumoniae ATCC 13883; experiment: Antimicrobial activity, agar well diffusion; format: cell-based; details: Dose 0.6 mg/disk, dwell = 6 mm
[18] = MTT cell viability assay; format: cell-based; details: human, 72 h exposure, ± SD, read-out: In vitro cytotoxicity IC50
Experimental: (§2) To evaluate the biocompatibility of the hybrid compounds, their in vitro antiproliferative activity was assessed in a panel of human malignant cell lines of different origin (K-562 and LAMA-84 suspension-growing myeloid leukemia cells, positive for the Philadelphia chromosome, and the urothelial bladder carcinoma cell line T-24 of adherent type). Non-malignant murine fibroblast cells (CCL-1) were also used as a screening platform. All cell lines were purchased from the German Collection of Microorganisms and Cell Cultures (DSMZ GmbH, Braunschweig, Germany). Cell cultures were cultivated in a growth medium RPMI 1640 supplemented with 10% fetal bovine serum (FBS), and 5% L-glutamine and were incubated under standard conditions of 37 °C and 5% humidified CO2 atmosphere. The effects of the newly synthesized anthranilic derivatives on cell viability were measured using a validated colorimetric assay for evaluating cell viability, known as the Mosmann MTT method. Exponential-phased cells were harvested and seeded (100 μL/well) in 96-well plates at the appropriate density (3 × 10^5 for the suspension cultures LAMA-84 and K-562 and 1.5 × 10^5 for the adherent T-24 and CCL-1 cells). Following a 24 h incubation, cells were treated with various concentrations of the experimental compounds in the concentration range of 200–12.5 μM. After an exposure time of 72 h, filter-sterilized MTT substrate solution (5 mg/mL in PBS) was added to each well of the culture plate. A further 2–4 h incubation allowed for the formation of purple insoluble formazan crystals. The latter was dissolved in isopropyl alcohol solution containing 5% formic acid prior to absorbance measurement at 550 nm. Collected absorbance values were blanked against MTT and isopropanol solution and normalized to the mean value of untreated control (100% cell viability).

[19] = MTT cell viability assay; format: cell-based, murine; details: mouse, CCL-1 normal fibroblast cells (adherent); CCL-1, MTT, 72 h exposure, ± SD; read-out: In vitro cytotoxicity IC50
Experimental: as §2

[20] = molecular target: T1, human albumin (Homo sapiens, UniProt P02768); experiment: Inhibition of albumin denaturation (anti-inflammatory activity); format: biochemical; details: heat-induced denaturation
T1 construct: purchased Octapharma (IP) SPRL Albunorm 20
Experimental: Anti-denaturation assay was conducted as described by Kumari et al. with slight modifications. The reaction mixture consisted of 0.5 mL of 5% aqueous solution of human albumin (Albunorm 20, Octapharma (IP) SPRL, 1070 Anderlecht, Belgium) and 0.2 mL of the tested compound, dissolved in DMSO, at different concentrations (20–500 μg/mL). The samples were incubated at 37 °C for 15 min. After that, 2.5 mL phosphate-buffered saline (pH 6.3) was added to each tube and the samples were heated for 30 min to 80 °C and then cooled for 5 min. Turbidity was measured spectrophotometrically at 660 nm (Cary 60 UV-Vis, Agilent Technologies, Santa Clara, CA, USA). For the blank sample, a mixture of 2.5 mL buffer and 0.2 mL DMSO was used instead of the compounds, while the product control test lacked the compounds’ concentration having 0.5 mL serum albumin, and 2.5 mL buffer only. The percentage inhibition of protein denaturation was calculated as follows:Percentage of inhibition denaturation = (Absorbancecontrol − Absorbancesample) / Absorbancecontrol × 100
The control represents 100% protein denaturation.
Commercially available over-the-counter non-steroidal anti-inflammatory drugs diclofenac sodium and acetylsalicylic acid were used for comparison. Their anti-inflammatory effect was determined as a percentage of inhibition of albumin denaturation following the same protocol as for the novel compounds.

[21] = system: Gram-positive bacteria, Gram-negative bacteria, yeasts and fungi; set-up: method as in PMID 36831141; details: same concentration range; cited from earlier work
[22] = system: K-562, LAMA-84, T-24, CCL-1 cell lines; set-up: method as in PMID 36831141; details: reference spasmolytic drug; cited from earlier work
[23] = K-562 myeloid leukemia cells (suspension), K-562, MTT
[24] = LAMA-84 myeloid leukemia cells (suspension), LAMA-84, MTT
[25] = T-24 urothelial bladder carcinoma cells (adherent), T-24, MTT

T1 sequence (P02768 25-609): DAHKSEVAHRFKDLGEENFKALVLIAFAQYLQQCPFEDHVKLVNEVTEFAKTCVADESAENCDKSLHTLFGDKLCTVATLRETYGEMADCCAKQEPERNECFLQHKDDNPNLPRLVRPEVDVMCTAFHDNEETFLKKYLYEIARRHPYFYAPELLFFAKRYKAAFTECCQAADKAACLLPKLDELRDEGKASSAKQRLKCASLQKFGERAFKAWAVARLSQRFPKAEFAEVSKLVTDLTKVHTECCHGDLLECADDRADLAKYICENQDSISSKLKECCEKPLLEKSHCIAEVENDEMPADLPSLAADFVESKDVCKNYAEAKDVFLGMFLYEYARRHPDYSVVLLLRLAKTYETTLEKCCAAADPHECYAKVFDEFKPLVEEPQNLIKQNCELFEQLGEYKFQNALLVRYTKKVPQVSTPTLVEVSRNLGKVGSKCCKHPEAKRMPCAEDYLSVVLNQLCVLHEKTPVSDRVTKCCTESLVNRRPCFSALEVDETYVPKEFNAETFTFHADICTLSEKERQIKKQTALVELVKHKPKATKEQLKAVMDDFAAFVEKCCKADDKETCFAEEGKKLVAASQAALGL

IC50 [20]: 1.67 mM
Structure (SMILES): O=C(Nc1ccccc1C(=O)NCCc1cccc(Cl)c1)c1ccccc1Cl [Compound 4d, 2-chloro-N-(2-((3-chlorophenethyl)carbamoyl)phenyl)benzamide]
Inhibition Zones [1]: 8 mm
Inhibition Zones [2]: 11 mm
Inhibition Zones [3]: 10 mm
Inhibition Zones [4]: 10 mm
Inhibition Zones [5]: 11 mm
Inhibition Zones [6]: 12 mm
Inhibition Zones [7]: 8 mm
Inhibition Zones [8]: 11 mm
Inhibition Zones [9]: 12 mm
Inhibition Zones [10]: 15 mm
Inhibition Zones [11]: 8 mm
Inhibition Zones [12]: 10 mm
Inhibition Zones [13]: 9 mm
Inhibition Zones [14]: 8 mm
Inhibition Zones [15]: 10 mm
Inhibition Zones [16]: 12 mm
Inhibition Zones [17]: 8 mm
IC50 at 72 h [18, 23]: 99.2 ± 8.8 µM
IC50 at 72 h [18, 24]: 183 ± 13.3 µM
IC50 at 72 h [18, 25]: > 200 µM
IC50 at 72 h [19]: > 200 µM

Structure (SMILES): O=C(NCCc1cccc(Cl)c1)c1ccccc1NC(=O)C(Cl)c1ccccc1 (centres unmarked) [Compound 4e, 2-(2-chloro-2-phenylacetamido)-N-(3-chlorophenethyl)benzamide]
Inhibition Zones [2]: 8 mm
Inhibition Zones [3]: 10 mm
Inhibition Zones [5]: 10 mm
Inhibition Zones [6]: 10 mm
Inhibition Zones [7]: 8 mm
Inhibition Zones [8]: 9 mm
Inhibition Zones [9]: 9 mm
Inhibition Zones [10]: 8 mm
Inhibition Zones [11]: 8 mm
Inhibition Zones [12]: 10 mm
Inhibition Zones [13]: 9 mm
Inhibition Zones [14]: 8 mm
Inhibition Zones [15]: 11 mm
Inhibition Zones [17]: 16 mm
IC50 at 72 h [18, 23]: 102 ± 7.9 µM
IC50 at 72 h [18, 24]: 193 ± 14.7 µM
IC50 at 72 h [18, 25]: 120 ± 9.9 µM
IC50 at 72 h [19]: 69.1 ± 4.6 µM

IC50 [20]: 1.71 mM
Structure (SMILES): O=C(Cc1ccccc1)Nc1ccccc1C(=O)NCCc1cccc(Cl)c1 [Compound 4c, N-(3-chlorophenethyl)-2-(2-phenylacetamido)benzamide]
Inhibition Zones [2]: 8 mm
Inhibition Zones [3]: 10 mm
Inhibition Zones [5]: 9 mm
Inhibition Zones [6]: 10 mm
Inhibition Zones [9]: 12 mm
Inhibition Zones [10]: 8 mm
Inhibition Zones [12]: 10 mm
Inhibition Zones [13]: 8 mm
Inhibition Zones [15]: 8 mm
IC50 at 72 h [18, 23]: 27.4 ± 2.4 µM
IC50 at 72 h [18, 24]: 31.6 ± 1.1 µM
IC50 at 72 h [18, 25]: > 200 µM
IC50 at 72 h [19]: 69.5 ± 6.1 µM

Structure (SMILES): CCN(CCCCOC(=O)c1ccc(OC)c(OC)c1)C(C)Cc1ccc(OC)cc1 (centres unmarked) [mebeverine]
antimicrobial activity (overall, in words) [21]: did not show any antimicrobial activity
half-inhibitory concentrations [22]: under the hundred-micromolar range
